Laboratory results reported in patent publication US6323230A, “Use of nitrogen heterocyclic aromatic derivatives in the topical treatment of the epithelial tissues diseases” (Geange Ltd., priority 1997, dated 2001).

Legend:
[1] = Percutaneous absorption / systemically bioavailable dose from cream; assay type: in vivo; conditions: cream 0.05-0.1%
[2] = test system: ulcerous cholitis (colon); assay: Animal models of ulcerous cholitis; assay type: in vivo, Wistar rats; conditions: oral, daily, 1 mg/kg, in sesame oil 2 mg/mL
Procedure: Dealing with the activity of the compounds object of the present invention, on the inflammatory diseases of the low intestine, some compounds, namely V, VI, X and XI, were tested in animal models of ulcerous cholitis (Wallace J. L. et al., Eur. J. Pharmacol. 257, 249 (1994); Renter B. K. et al. J. Clin. Invest. 98, 2076-2085 (1996).
In particular, compound VI, when administered daily by oral route to Wistar rats, dissolved in sesame oil at the concentration of 2 mg/mL , at the dose of 1 mg/kg, did show a good activity in favouring colon ulcers repair, in re-establishing the normal thickness of the intestinal wall and in decreasing the granulocytes infiltration proper of an inflammatory condition.

Compound	maximum systemically bioavailable dose ([1]; about 50 g, whole body surface, 25-50 mg) [mg/kg]	Fa ([1]; in vivo, topical or ocular, of the applied dose) [%]	decreasing the granulocytes infiltration [2]	favouring colon ulcers repair [2]	re-establishing the normal thickness of the intestinal wall [2]
CCc1ccccc1-c1n[nH]c(-c2cccc(OC)c2)n1 [Compound XIII]	0.05 to 0.1	~10			
COc1cccc(-c2nc(-c3ccccc3CO)n[nH]2)c1 [VI]			good activity	good activity	good activity
